# Test results as given in patent US20130165489A1, “Small Molecule Modulators of HIV-1 Capsid Stability and Methods Thereof” (The Trustees of the University of Pennsylvania, priority 2010, published 2013).
# Entries after “also recorded” stand apart in the source; their conditions may differ.
# What was measured:
# Chikungunya = assay: CPE assay, Chikungunya; format: cell-based
# DENV (serotypes 1-4) = assay: CPE assay, Dengue serotypes 1-4; format: cell-based, Dengue virus
# YFV = assay: microbe, parasite or virus in culture; format: cell-based, yellow fever virus
# [1] = test system: HIV-1 92BR025 (subtype C clinical isolate); assay: Anti-HIV efficacy in human PBMCs, isolate 92BR025; format: cell-based
# Protocol: (§1) HIV human peripheral blood mononuclear cell (PBMC) assays were performed as described previously (Lanier et al., 2010, Antimicrob. Agents Chemother. 54:2901-09; Ptak et al., 2008, Antimicrob. Agents Chemother. 52:1302-17). Briefly, fresh PBMCs, seronegative for HIV and hepatitis B virus (HBV), were isolated from blood samples of the screened donors (Biological Specialty Corporation, Colmar, Pa.) by using lymphocyte separation medium (LSM; density, 1.078±0.002 g/ml; Cellgro; Mediatech, Inc.) by following the manufacturer's instructions. Cells were stimulated by incubation in 4 μg/mL phytohemagglutinin (PHA; Sigma) for 48 to 72 h. Mitogenic stimulation was maintained by the addition of 20 U/mL recombinant human interleukin-2 (rhIL-2; R&D Systems, Inc.) to the culture medium. PHA-stimulated PBMCs from at least two donors were pooled, diluted in fresh medium, and added to 96-well plates at 5×10^4 cells/well. Cells were infected (final multiplicity of infection [MOI] of ≅0.1) in the presence of 9 different concentrations of test compounds (triplicate wells/concentration) and incubated for 7 days. […] Following removal of supernatant samples, compound cytotoxicity was measured by the addition of 3-(4,5-dimethylthiazol-2-yl)-5-(3-carboxymethoxyphenyl)-2-(4-sulfophenyl)-2H-tetrazolium (MTS; CellTiter 96 reagent; Promega) by following the manufacturer's instructions. […]
# JEV = assay: CPE assay, JEV; format: cell-based, Japanese encephalitis virus
# H1N1 = assay: CPE assay, influenza H1N1; format: cell-based
# [2] = test system: HIV-1 89BZ167 (subtype B clinical isolate); assay: Anti-HIV efficacy in human PBMCs, isolate 89BZ167; format: cell-based
# Protocol: as §1
# HIV-1NL4-3 CA = HIV-1NL4-3 CA (Human immunodeficiency virus type 1 group M subtype B, UniProt P12493); assay: Surface plasmon resonance direct binding to HIV-1 CA
# Protocol: Interaction analyses were performed on a Biacore 3000 optical biosensor (Biacore, Piscataway Township, NJ) with simultaneous monitoring of two flow cells Immobilization of the CA protein to CM7 sensor chips was performed following the standard amine coupling procedure according to the manufacturer's specifications. Briefly, carboxyl groups on the sensor chip surface were activated by injection of 50 μL of a solution containing 0.2 M EDC (1-ethyl-3-[3-dimethylamino-propyl]carbodiimide hydrochloride) and 0.05 M NHS(N-hydroxysuccinimide) at a flow rate of 5 μL min^−1. Next, the 50 μL of CA protein at a concentration of 6 μM in pH 5.0, 10 mM sodium acetate buffer was passed over the chip surface at 25° C. at a flow rate of 5 μL min^−1 Then, after unreacted protein had been washed out, excess active ester groups on the sensor surface were capped by the injection of 50 μL of 1 M ethanolamine (pH 8.0) at a flow rate of 5 μL min^−1. A reference surface with the nonspecific anti-gp120 antibody 17b (Thali et al., 1993, J. Virol. 67:3978-88) immobilized was generated at the same time under the same conditions and was used as background to correct nonspecific binding and for instrument and buffer artifacts.
# Stock solutions of CMPD-E and CMPD-F were prepared by dissolving the compounds in 100% dimethyl sulfoxide (DMSO) to a final concentration of 10 mM. To prepare the sample for analysis, 30 μL of the compound stock solution was added to sample preparation buffer (25 mM Tris-HCl, 150 mM NaCl, pH 7.5) to a final volume of 1 mL and mixed thoroughly. Preparation of analyte in this manner ensured that the concentration of DMSO was matched with that of running buffer with 3% DMSO. Lower concentrations of each compound were then prepared by twofold serial dilutions into running buffer (25 mM Tris-HCl, 150 mM NaCl, 3% DMSO, pH 7.5). These compound dilutions were then injected over the control and CA surfaces at a flow rate of 50 μL min^−1, for a 2-min association phase, followed by a 5-min dissociation phase. […]
# [3] = test system: HIV-1 92UG031 (subtype A clinical isolate); assay: Anti-HIV efficacy in human PBMCs, isolate 92UG031; format: cell-based
# Protocol: as §1
# [4] = Human immunodeficiency virus 1, PBMC
smiles,measurement,setting,value
"O=C(O)c1ccc(-c2nc(-c3ccccc3)c(-c3ccccc3)[nH]2)cc1 [CMPD-E, 4-(4,5-diphenyl-1H-imidazol-2-yl)benzoic acid]",effect on Chikungunya virus replication,Chikungunya,no inhibitory effects
same,IC50,Chikungunya; Chikungunya virus,> 100 µM
same,anti-DENV activity,DENV (serotypes 1-4),no inhibitory effects; also recorded: retains none of the anti-DENV activity
same,IC50,DENV (serotypes 1-4); Dengue virus,> 100 µM
same,IC50,YFV; Yellow fever virus,> 100 µM
same,effect on yellow fever virus replication,YFV; up to 100 μM,no inhibitory effects
same,IC50,[1]; [4],51 µM
same,Antiviral index (TC50/IC50),[1]; PBMC,>1.96
same,effect on Japanese encephalitis virus replication,JEV,no inhibitory effects
same,IC50,JEV; Japanese encephalitis virus,> 100 µM
same,IC50,"H1N1; Influenza A virus, H1N1, CPE assay",> 100 µM
same,effect on influenza H1N1 replication,H1N1; up to 100 μM,no inhibitory effects
same,IC50,[2]; [4],92.9 µM
same,Antiviral index (TC50/IC50),[2]; PBMC,>1.08
same,Kd,HIV-1NL4-3 CA,66.3 ± 4.8 µM
same,interaction with sensor-chip immobilized HIV-1 CA,HIV-1NL4-3 CA; SPR,directly interacted
same,IC50,[3]; [4],93.6 µM
same,Antiviral index (TC50/IC50),[3]; PBMC,>1.07
